According to the Deep4Chem optical property database:
One block for each compound: values may come before it.

Assay: photoluminescence quantum yield (fraction); solvent given as SMILES
[1] = in O=P(c1ccccc1)(c1ccccc1)c1ccccc1Oc1ccccc1P(=O)(c1ccccc1)c1ccccc1

photoluminescence quantum yield (in ClCCl): 0.28
Structure (SMILES): Cc1ccccc1-c1c2cccc3c(-c4ccc(C(C)(C)C)cc4)cc4c(-c5ccccc5C)c5cccc6c(-c7ccc(C(C)(C)C)cc7)cc1c(c65)c4c32

photoluminescence quantum yield (in ClC(Cl)Cl): 0.06
Structure (SMILES): CC1=CC(C)=[N+]2C1=C(c1ccc(I)cc1)c1c(C)cc(C)n1[B-]2(Oc1ccccc1)Oc1ccccc1

photoluminescence quantum yield (in ClCCl): 0.03
Structure (SMILES): CC(C)(C)c1ccc2c3ccccc3c3cncnc3c2c1

photoluminescence quantum yield (in ClCCl): 0.1
Structure (SMILES): Cc1ccc(C#Cc2c3cc4ccccc4cc3c(C#C[Si](C(C)C)(C(C)C)C(C)C)c3cc4ccccc4cc23)cc1

photoluminescence quantum yield (in ClCCl): 0.61
Structure (SMILES): C(=C\c1ncc2ccccc2n1)/c1ccc(N(c2ccccc2)c2ccccc2)cc1

photoluminescence quantum yield (in ClCCl): 0.0575
Structure (SMILES): COc1cc(OC)cc(-c2ccc(C3=CC(c4ccccc4)=C(c4ccccc4)C3)cc2)c1

photoluminescence quantum yield (in ClCCl): 0.19
Structure (SMILES): CCCc1cc2c(s1)-c1cc3c(cc1NB2c1ccccc1)-c1sc(CCC)cc1B(c1ccccc1)N3

photoluminescence quantum yield (in C1CCCCC1): 0.66
Structure (SMILES): c1ccc(-c2ccc(-c3ccc4c(c3)CCO4)cc2)cc1

photoluminescence quantum yield (in C1CCOC1): 0.046
Structure (SMILES): N#C/C(=C\c1ccc(C=C(c2ccccc2)c2ccccc2)cc1)c1ccc([N+](=O)[O-])cc1

photoluminescence quantum yield (in ClCCl): 0.94
Structure (SMILES): CCN(CC)c1ccc2cc(-c3nc4ccccc4n3-c3ccccc3)c(=O)oc2c1

photoluminescence quantum yield (in C1CCOC1): 0.00012
Structure (SMILES): C1=Cc2ccccc2C(=Cc2ccc(-c3ccc(C=C4c5ccccc5C=Cc5ccccc54)cc3)cc2)c2ccccc21

photoluminescence quantum yield (in ClCCl): 0.00157
Structure (SMILES): COc1cc2c(cc1OC)C1=C[C@H](c3ccccc3)C3(C(C(=O)O[C@@H]4C[C@H]5CC[C@@H]4C5)=C(C(=O)O[C@H]4C[C@@H]5CC[C@H]4C5)N1CC2)c1ccccc1-c1ccccc13

photoluminescence quantum yield (in CCCCC(CC)n1c2ccc(-n3c4ccccc4c4ccccc43)cc2c2cc(-n3c4ccccc4c4ccccc43)ccc21): 0.208
photoluminescence quantum yield (in c1cc(-n2c3ccccc3c3ccccc32)cc(-n2c3ccccc3c3ccccc32)c1): 0.321
Structure (SMILES): O=S(=O)(c1cccc(N2c3ccccc3Oc3ccccc32)c1)c1cccc(N2c3ccccc3Oc3ccccc32)c1

photoluminescence quantum yield (in CO): 0.41
Structure (SMILES): Cc1cc(C)c(B(c2cc(-c3ccc(C(F)(F)F)cc3)sc2-c2sc(-c3ccc(C(F)(F)F)cc3)cc2P(=O)(c2ccccc2)c2ccccc2)c2c(C)cc(C)cc2C)c(C)c1

photoluminescence quantum yield (in C1CCCCC1): 0.92
Structure (SMILES): CCCC1(CCC)c2cc(-c3ccc(C(C)(C)C)cc3)ccc2-c2ccc(-c3ccc4c(c3)C(CCC)(CCC)c3cc(-c5ccc(C(C)(C)C)cc5)ccc3-4)cc21

photoluminescence quantum yield (in ClC(Cl)Cl): 0.152
Structure (SMILES): CCOC(=O)C1(O)c2cc3ccc4cccc5ccc(c2C(=O)N1C(C)(C)C)c3c45 (centres undefined)

photoluminescence quantum yield (in ClC(Cl)Cl): 0.106
Structure (SMILES): F[B-]1(F)OC(c2cccc(Br)c2)=Cc2c3ccccc3c3ccccc3[n+]21

Continued, compound first:

Structure (SMILES): CCCCCCCCCCCCNc1cccc2[n+]1[B-](F)(F)n1c(c3cccc4cccc1c43)=N2
photoluminescence quantum yield (in C1CCOC1): 0.18
photoluminescence quantum yield (in CC#N): 0.12
photoluminescence quantum yield (in CCCCCC): 0.58
photoluminescence quantum yield (in Cc1ccccc1): 0.36
photoluminescence quantum yield (in ClCCl): 0.25

Structure (SMILES): CC1=CC(C)=[N+]2C1=C(c1ccc(-c3c4ccccc4c(-c4ccccc4)c4ccccc34)cc1)c1c(C)cc(C)n1[B-]2(F)F
photoluminescence quantum yield (in CC#N): 0.11
photoluminescence quantum yield (in CCCCCC): 0.7
photoluminescence quantum yield (in CCO): 0.37
photoluminescence quantum yield (in CN(C)C=O): 0.13
photoluminescence quantum yield (in Cc1ccccc1): 0.65
photoluminescence quantum yield (in ClCCl): 0.57

Structure (SMILES): COc1ccc(C2=[N+]3C(=Nc4c(-c5ccccc5-c5ccc(C(C)(C)C)cc5)cc(-c5ccc(OC)cc5)n4[B-]3(F)F)c3c2c2cc(C(C)(C)C)ccc2c2ccccc32)cc1
photoluminescence quantum yield (in Cc1ccccc1): 0.38

Structure (SMILES): CCCN1/C(=C/C=C(/C=C/c2sc3ccccc3[n+]2CCC)c2ccc([N+](=O)[O-])cc2)C(C)(C)c2ccccc21
photoluminescence quantum yield (in CO): 0.03
photoluminescence quantum yield (in CS(C)=O): 0.03
photoluminescence quantum yield (in O): 0.06

Structure (SMILES): CC(C)(C)c1ccc(N(c2ccc(S(=O)(=O)c3ccc(S(=O)(=O)c4ccc(N(c5ccc(C(C)(C)C)cc5)c5ccccc5C(C)(C)C)cc4)cc3)cc2)c2ccccc2C(C)(C)C)cc1
photoluminescence quantum yield (in Cc1ccccc1): 0.8

Structure (SMILES): Cc1cc2c(o1)=CC1=Cc3cc4oc(C)cc4n3[B-](F)(F)[N+]=21
photoluminescence quantum yield (in C1CCOC1): 0.93
photoluminescence quantum yield (in CC#N): 0.95
photoluminescence quantum yield (in CCO): 0.97
photoluminescence quantum yield (in CO): 0.96
photoluminescence quantum yield (in Cc1ccccc1): 0.94
photoluminescence quantum yield (in ClC(Cl)Cl): 0.96

Structure (SMILES): N#Cc1cccc(C#N)c1-c1ccc(N2c3ccccc3C3(c4ccccc42)c2ccccc2N(c2ccc(-c4c(C#N)cccc4C#N)cc2)c2ccccc23)cc1
photoluminescence quantum yield [1]: 0.65

Structure (SMILES): CCCCCCOc1ccc(-c2cnc(-c3nnc(-c4ccc(OCCCCCC)cc4)o3)o2)cc1
photoluminescence quantum yield (in C1CCCCC1): 0.82
photoluminescence quantum yield (in C1CCOC1): 0.57
photoluminescence quantum yield (in CC#N): 0.75
photoluminescence quantum yield (in CCO): 0.8
photoluminescence quantum yield (in CO): 0.65
photoluminescence quantum yield (in ClC(Cl)Cl): 0.49

Structure (SMILES): CCOC(=O)CSc1nc2c(c(C#N)c1C#N)CCCC2
photoluminescence quantum yield (in c1ccccc1): 0.04

Structure (SMILES): CN(C)c1ccc(N(C)C)cc1
photoluminescence quantum yield (in C1CCCCC1): 0.21

Structure (SMILES): CC1=[N+]2C(=C(c3ccc(N(C)C)cc3)c3ccc(C)n3[B-]2(F)F)C=C1
photoluminescence quantum yield (in C1CCCCC1): 0.37
photoluminescence quantum yield (in CC#N): 0.008
photoluminescence quantum yield (in CC(=O)C(C)(C)C): 0.024
photoluminescence quantum yield (in CC(C)=O): 0.006
photoluminescence quantum yield (in CCCCCC): 0.376
photoluminescence quantum yield (in CO): 0.03
photoluminescence quantum yield (in Cc1ccccc1): 0.15
photoluminescence quantum yield (in ClC(Cl)Cl): 0.058

Structure (SMILES): Cc1cccc2[n+]1[B-](F)(F)n1c(c3cccc4cccc1c43)=N2
photoluminescence quantum yield (in C1CCOC1): 0.99
photoluminescence quantum yield (in CC#N): 0.99
photoluminescence quantum yield (in CCCCCC): 0.99
photoluminescence quantum yield (in Cc1ccccc1): 0.99
photoluminescence quantum yield (in ClCCl): 0.99

Structure (SMILES): CCCCCCc1ccc(-n2c3[n+](c4c5ccccc5c5ccccc5c42)[B-](C)(C)c2ccccc2-3)cc1
photoluminescence quantum yield (in C1CCOC1): 0.45
photoluminescence quantum yield (in CC#N): 0.28
photoluminescence quantum yield (in Cc1ccccc1): 0.46
photoluminescence quantum yield (in ClCCl): 0.38

Structure (SMILES): CC(C)CCC[C@@H](C)[C@H]1CC[C@H]2[C@@H]3CC=C4C[C@@H](OC(=O)Oc5cc(/C=C/C=C/c6ccc(N(C)C)cc6)ccc5[N+](=O)[O-])CC[C@]4(C)[C@H]3CC[C@]12C
photoluminescence quantum yield (in C1CCCCC1): 0.29
photoluminescence quantum yield (in C1COCCO1): 0.08
photoluminescence quantum yield (in CCCCCCC): 0.28
photoluminescence quantum yield (in Cc1ccccc1): 0.17

Structure (SMILES): O=c1cc2cc(O)c3cc(O)cc4ccc(o1)c2c43
photoluminescence quantum yield (in CC1CCCO1): 0.36

Structure (SMILES): CCCCCCC(CCCCCC)N1C(=O)c2cccc3c(-c4ccc(-c5ccc(OC)cc5)cc4)ccc(c23)C1=O
photoluminescence quantum yield (in CCCCCC): 0.5
photoluminescence quantum yield (in CCCCCCCCCCCCCC): 0.5
photoluminescence quantum yield (in CCCCCCCCCCCO): 0.56
photoluminescence quantum yield (in CCCCO): 0.16
photoluminescence quantum yield (in CN(C)C=O): 0.15
photoluminescence quantum yield (in Cc1ccccc1): 0.4
photoluminescence quantum yield (in ClC(Cl)Cl): 0.67

Structure (SMILES): O=C1NC(c2ccccc2)=N/C1=C\c1ccccc1
photoluminescence quantum yield (in C1COCCO1): 0.001

Structure (SMILES): COC(=O)COc1ccc(/C=C/C2=[N+]3C(=C(c4ccc(N5CCCCC5)cc4)c4c(C)cc(C)n4[B-]3(F)F)C(C)=C2)cc1
photoluminescence quantum yield (in CO): 0.87

Structure (SMILES): O=C1OC(=O)C2=C1[Se][C@]13C2=C[C@H](c2ccccc21)c1ccccc13
photoluminescence quantum yield (in ClCCl): 0.62

Structure (SMILES): C/C=C/c1ccc(OC)c(OC)c1
photoluminescence quantum yield (in CC#N): 0.28
photoluminescence quantum yield (in CCCCCC): 0.35

Structure (SMILES): O=C1CCCC2=C1C(c1ccc([N+](=O)[O-])cc1)c1c(c3ccccc3oc1=O)N2 (centres undefined)
photoluminescence quantum yield (in CS(C)=O): 0.014

Structure (SMILES): CC(C)(C)c1ccc2c(c1)c1cc(C(C)(C)C)ccc1n2-c1c(C#N)c(-n2c3ccc(C(C)(C)C)cc3c3cc(C(C)(C)C)ccc32)c(-n2c3ccc(C(C)(C)C)cc3c3cc(C(C)(C)C)ccc32)c(-n2c3ccc(C(C)(C)C)cc3c3cc(C(C)(C)C)ccc32)c1-n1c2ccc(C(C)(C)C)cc2c2cc(C(C)(C)C)ccc21
photoluminescence quantum yield (in Cc1ccccc1): 0.86

Structure (SMILES): COCCC1=Cc2nc1ccc1[nH]c(cc1CCOC)c1nc(c(OC(C)=O)cc3[nH]c2cc3CCOC)C(CCOC)=C1
photoluminescence quantum yield (in Cc1ccccc1): 0.27

Structure (SMILES): COc1ccccc1C1=[N+]2C(=Nc3c(-c4ccccc4)cc(-c4ccccc4OC)n3[B-]2(F)F)C(c2ccccc2)=C1
photoluminescence quantum yield (in Cc1ccccc1): 0.07

Structure (SMILES): c1ccc(-c2nc(-c3ccccc3)nc(-c3cc(-n4c5ccccc5c5ncccc54)c(-n4c5ccccc5c5ccccc54)c(-n4c5ccccc5c5ncccc54)c3)n2)cc1
photoluminescence quantum yield [1]: 0.85

Structure (SMILES): c1ccc(Cc2c3ccc(=[N+]4CCCCC4)cc-3oc3cc(N4CCCCC4)ccc23)cc1
photoluminescence quantum yield (in ClCCl): 0.87

Structure (SMILES): COC(=O)c1nc(-c2ccc(OC)cc2)oc1C
photoluminescence quantum yield (in C1CCCCC1): 0.55
photoluminescence quantum yield (in CC#N): 0.38
photoluminescence quantum yield (in CCO): 0.41
photoluminescence quantum yield (in CCOC(C)=O): 0.31

Structure (SMILES): N#Cc1ccc(-c2cn3cc(-c4ccccc4)c[n+]3[n-]2)cc1
photoluminescence quantum yield (in ClCCl): 0.48

Structure (SMILES): CCCCC(CC)Cn1c2cc(C#N)ccc2c2ccc(C#N)cc21 (centres undefined)
photoluminescence quantum yield (in ClCCl): 0.3

Structure (SMILES): CC(C)[Si]1(C(C)C)c2ccccc2-c2ccc(N(C)C)cc21
photoluminescence quantum yield (in C1CCCCC1): 0.26
photoluminescence quantum yield (in CC#N): 0.28
photoluminescence quantum yield (in CCO): 0.11
photoluminescence quantum yield (in CCOCC): 0.22
photoluminescence quantum yield (in CS(C)=O): 0.12
photoluminescence quantum yield (in ClCCl): 0.13
photoluminescence quantum yield (in c1ccccc1): 0.22

Structure (SMILES): CC1(C)c2ccccc2N(c2ccc(-c3nc4cc(C#N)c(C#N)cc4nc3-c3ccc(N4c5ccccc5C(C)(C)c5ccccc54)cc3)cc2)c2ccccc21
photoluminescence quantum yield (in Cc1ccccc1): 0.91

Structure (SMILES): CCC1=C(CC)c2cccc3c2c(cc2nc4ccccc4nc23)O1
photoluminescence quantum yield (in ClCCl): 0.47

Structure (SMILES): CCn1c2ccccc2c2cc(-c3cc(-c4ccc5c(c4)c4ccccc4n5CC)nc(-c4ccc(C#N)cc4)n3)ccc21
photoluminescence quantum yield (in C1CCOC1): 0.08
photoluminescence quantum yield (in CCOC(C)=O): 0.09
photoluminescence quantum yield (in CN(C)C=O): 0.07
photoluminescence quantum yield (in Cc1ccccc1): 0.34
photoluminescence quantum yield (in ClCCl): 0.11

Structure (SMILES): CC[N+]1(CC)CN2C(=N1)C(C(=O)O)=Cc1cc(Oc3ccccc3)ccc12
photoluminescence quantum yield (in O): 0.592

Structure (SMILES): CCCCN1C(=O)c2cc(Oc3ccc(C(C)(C)C)cc3)c3c4c(Oc5ccc(C(C)(C)C)cc5)cc5c6c(cc(Oc7ccc(C(C)(C)C)cc7)c(c7c(Oc8ccc(C(C)(C)C)cc8)cc(c2c37)C1=O)c64)C(=O)N(CCCC)C5=O
photoluminescence quantum yield (in C1CCOC1): 0.82
photoluminescence quantum yield (in Cc1ccccc1): 0.811
photoluminescence quantum yield (in ClC(Cl)Cl): 0.83
photoluminescence quantum yield (in ClCCl): 0.802
